Columns and labels:
EGFR L858R/T790M = EGFR L858R/T790M (Homo sapiens (Human), UniProt P00533, L858R/T790M); test: HTRF-based EGFR biochemical assay, L858R/T790M; conditions: L858R/T790M 0.02 nM enzyme, 100 μM ATP; read-out: LRTM enzyme IC50
Description: (§1) EGFR biochemical activity measurements were carried out using the homogeneous time-resolved fluorescence (HTRF) assay (Cisbio). Inhibitors and DMSO normalizations were first dispensed to empty black low-volume 384-well plates (Corning) with D300 digital liquid dispenser (HP). All reactions were carried out at room temperature and solutions were added to plates with a Multidrop Combi Reagent Dispenser (ThermoFisher). The reaction mixture (10 µL final volume) contained 1 μM tyrosine kinase peptide-biotin substrate and mutant EGFR in a reaction buffer (50 mM HEPES pH 7.0, 5 mM MgCl2, 1 mM MnCl2, 0.01% BSA, 2 mM TCEP, 0.1 mM NaVO4). Enzyme concentrations were adjusted to accommodate varying kinase activities (L858R 0.1 nM, L858R/T790M 0.02 nM). Enzyme reaction solution (2× concentrations, 5 μL) was added to 384-well plates containing compounds and incubated for 30 mins. Enzyme reactions were initiated with the addition of 5 μL of ATP to a final concentration of 100 μM and reacted for 20 mins. Reactions were quenched with the addition of 10 μL of phospho-tyrosine antibody-Europium (III) cryptate (1-to-180 volume ratio) and Streptavidin-XL665 (46.7 nM) in EDTA-containing detection buffer, then incubated at room temperature for 1 hour, and read with a PHERAstar plate reader (excitation=337 nm, emission=620 nm and 665 nm). IC50 values were determined by inhibition curves (11-point curves from 1.0 μM to 0.130 nM or 23-point curves from 1.0 μM to 0.130 μM) in triplicate with non-linear least squares fit in GraphPad Prism 7.0d.

EGFR L858R = EGFR L858R (Homo sapiens (Human), UniProt P00533, L858R); test: HTRF-based EGFR biochemical assay, L858R; conditions: L858R 0.1 nM enzyme, 100 μM ATP; read-out: LR enzyme IC50
Description: as §1

[1] = system: EGFR mutant L858R/T790M Ba/F3 cells; test: Ba/F3 cell proliferation (Cell Titer Glo), L858R/T790M; format: cell-based, murine; conditions: Mus musculus, BaF3, 72 hours, read-out: LRTM BaF3 cell IC50
Excerpt: (§2) The EGFR mutant L858R and L858R/T790M Ba/F3 cells have been previously described (Zhou, W., et al. Nature 462, 2009, 1070-1074). All cell lines were maintained in RPMI 1640 (Cellgro; Mediatech Inc., Herndon, CA) supplemented with 10% FBS, 100 units/mL penicillin, 100 units/mL streptomycin. The EGFR 1941R mutation was introduced via site directed mutagenesis using the Quick Change Site-Directed Mutagenesis kit (Stratagene; La Jolla, CA) according to the manufacturer's instructions. All constructs were confirmed by DNA sequencing. The constructs were shuttled into the retroviral vector JP1540 using the Cre-recombination system (Agilent Technologies, Santa Clara, CA). Ba/F3 cells were then infected with retrovirus per standard protocols, as described previously (Zhou, et al, Nature 2009). Stable clones were obtained by selection in puromycin (2 μg/ml).
(§3) Growth and inhibition of growth was assessed by the Cell Titer Glo assay (Promega, Madison, WI) and was performed according to the manufacturer's instructions. The Cell Titer Glo assay is a luminescence-based method used to determine the number of viable cells based on quantitation of the ATP present, which is directly proportional to the amount of metabolically active cells present. Ba/F3 cells of different EGFR genotypes were exposed to the compounds disclosed herein for 72 hours and the number of cells used per experiment was determined empirically as has been previously established (Zhou, et al., Nature 2009). All experimental points were set up in triplicates in 384-well plates and all experiments were repeated at least three times. […] The curves were fitted using a non-linear regression model with a sigmoidal dose response.

[2] = system: EGFR mutant L858R Ba/F3 cells; test: Ba/F3 cell proliferation (Cell Titer Glo), L858R; format: cell-based, murine; conditions: Mus musculus, BaF3, 72 hours, read-out: LR BaF3 cell IC50
Excerpt: as §2, §3

Sequence of EGFR L858R/T790M (P00533 25-1210 T790M/L858R): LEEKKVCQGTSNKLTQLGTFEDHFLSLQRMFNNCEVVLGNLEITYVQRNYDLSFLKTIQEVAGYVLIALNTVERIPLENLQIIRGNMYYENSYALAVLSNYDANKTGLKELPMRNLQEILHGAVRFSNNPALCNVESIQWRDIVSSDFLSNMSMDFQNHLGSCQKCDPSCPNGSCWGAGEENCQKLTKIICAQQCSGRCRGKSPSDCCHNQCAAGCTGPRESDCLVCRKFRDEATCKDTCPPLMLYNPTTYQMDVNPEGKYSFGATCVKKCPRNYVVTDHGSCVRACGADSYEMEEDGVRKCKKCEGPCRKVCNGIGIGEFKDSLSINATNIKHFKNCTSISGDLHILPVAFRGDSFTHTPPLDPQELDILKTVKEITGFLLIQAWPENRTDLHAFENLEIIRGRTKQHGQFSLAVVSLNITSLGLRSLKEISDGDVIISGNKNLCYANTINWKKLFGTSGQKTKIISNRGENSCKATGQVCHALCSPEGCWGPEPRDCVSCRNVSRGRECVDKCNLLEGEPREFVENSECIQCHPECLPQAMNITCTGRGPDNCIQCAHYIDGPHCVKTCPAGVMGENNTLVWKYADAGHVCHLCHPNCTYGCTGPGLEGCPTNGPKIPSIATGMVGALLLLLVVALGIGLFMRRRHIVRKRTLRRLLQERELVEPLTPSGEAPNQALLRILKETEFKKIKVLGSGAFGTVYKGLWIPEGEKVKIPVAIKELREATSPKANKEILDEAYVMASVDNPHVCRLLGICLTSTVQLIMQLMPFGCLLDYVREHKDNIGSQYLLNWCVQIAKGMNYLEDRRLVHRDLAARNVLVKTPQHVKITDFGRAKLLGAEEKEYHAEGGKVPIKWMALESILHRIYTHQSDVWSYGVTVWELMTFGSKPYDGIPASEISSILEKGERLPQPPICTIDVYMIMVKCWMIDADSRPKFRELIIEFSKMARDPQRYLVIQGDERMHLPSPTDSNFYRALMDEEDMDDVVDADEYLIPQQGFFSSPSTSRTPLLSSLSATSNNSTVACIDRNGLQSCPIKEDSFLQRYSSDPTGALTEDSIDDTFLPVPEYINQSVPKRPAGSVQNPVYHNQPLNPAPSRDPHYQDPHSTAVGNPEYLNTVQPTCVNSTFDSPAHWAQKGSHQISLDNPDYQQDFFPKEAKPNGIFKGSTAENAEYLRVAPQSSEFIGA
Sequence of EGFR L858R (P00533 25-1210 L858R): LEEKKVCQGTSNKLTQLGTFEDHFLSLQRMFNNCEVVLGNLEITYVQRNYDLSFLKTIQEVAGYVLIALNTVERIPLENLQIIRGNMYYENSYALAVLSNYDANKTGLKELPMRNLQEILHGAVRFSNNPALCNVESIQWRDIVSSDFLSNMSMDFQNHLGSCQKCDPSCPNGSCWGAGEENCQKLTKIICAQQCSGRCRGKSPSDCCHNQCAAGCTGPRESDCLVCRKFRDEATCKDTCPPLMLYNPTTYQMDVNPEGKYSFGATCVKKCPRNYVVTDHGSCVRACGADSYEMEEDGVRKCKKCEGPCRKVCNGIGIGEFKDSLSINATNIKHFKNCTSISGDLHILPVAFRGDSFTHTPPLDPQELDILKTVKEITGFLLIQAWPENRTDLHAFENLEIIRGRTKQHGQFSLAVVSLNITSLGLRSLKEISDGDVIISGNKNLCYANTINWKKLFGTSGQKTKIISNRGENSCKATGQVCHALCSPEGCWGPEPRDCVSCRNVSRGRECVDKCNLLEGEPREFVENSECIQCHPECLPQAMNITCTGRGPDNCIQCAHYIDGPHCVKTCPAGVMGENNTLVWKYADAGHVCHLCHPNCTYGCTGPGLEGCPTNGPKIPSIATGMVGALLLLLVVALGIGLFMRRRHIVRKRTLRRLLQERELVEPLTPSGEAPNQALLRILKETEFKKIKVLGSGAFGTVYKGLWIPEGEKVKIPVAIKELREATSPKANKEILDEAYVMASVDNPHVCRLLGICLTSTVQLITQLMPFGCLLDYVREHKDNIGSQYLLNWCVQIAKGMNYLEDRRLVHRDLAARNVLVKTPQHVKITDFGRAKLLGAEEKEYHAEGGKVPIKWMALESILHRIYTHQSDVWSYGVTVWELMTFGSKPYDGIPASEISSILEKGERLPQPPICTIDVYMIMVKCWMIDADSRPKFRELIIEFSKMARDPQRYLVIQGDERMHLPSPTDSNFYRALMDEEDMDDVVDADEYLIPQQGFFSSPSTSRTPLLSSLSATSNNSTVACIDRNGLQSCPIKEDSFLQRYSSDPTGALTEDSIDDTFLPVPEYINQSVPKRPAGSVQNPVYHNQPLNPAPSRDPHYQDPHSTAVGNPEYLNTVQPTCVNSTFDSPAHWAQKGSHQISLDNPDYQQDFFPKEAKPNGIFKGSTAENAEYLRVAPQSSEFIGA

Row | SMILES | IC50 (EGFR L858R/T790M) [nM] | IC50 (EGFR L858R) [nM] | IC50 [1] [nM] | IC50 [2] [nM]
1 | CN1CCC(c2ccc(-c3ccc4c(c3)OCN(C(c3nc5ccccc5[nH]3)c3cc(F)ccc3O)C4=O)cc2)CC1 (stereo not drawn) [Compound 006, 3-((1H-Benzo[d]imidazol-2-yl) (5-fluoro-2-hydroxyphenyl)methyl)-7-(4-(1-methylpiperidin-4-yl)phenyl)-2,3-dihydro-4H-benzo[e][1,3]oxazin-4-one] | 0.9 | 3.6 | 880 | 1540
2 | CN1CCC(c2ccc(-c3ccc4c(c3)C(=O)N(C(c3nc5ccccc5[nH]3)c3cc(F)ccc3O)CO4)cc2)CC1 (stereo not drawn) [Compound 007, 3-((1H-Benzo[d]imidazol-2-yl) (5-fluoro-2-hydroxyphenyl)methyl)-6-(4-(1-methylpiperidin-4-yl)phenyl)-2,3-dihydro-4H-benzo[e][1,3]oxazin-4-one 2,2,2-trifluoroacetate] | 0.7 | 1.9 | 220 | 470
3 | CN1CCC(c2ccc(-c3ccc4c(c3F)C(=O)N(C(C(=O)Nc3nccs3)c3ccccc3)CO4)cc2)CC1 (stereo not drawn) [Compound 005, 2-(5-Fluoro-6-(4-(1-methylpiperidin-4-yl)phenyl)-4-oxo-2H-benzo[e][1,3]oxazin-3(4H)-yl)-2-phenyl-N-(thiazol-2-yl)acetamide] | 1 | 3.7 | 460 | 1040

More lines, now with the values ahead:

Row | IC50 (EGFR L858R/T790M) [nM] | IC50 (EGFR L858R) [nM] | IC50 [1] [nM] | IC50 [2] [nM] | SMILES
4 | 0.8 | 23 | 460 | 1250 | CN1CCC(c2ccc(-c3ccc4c(c3)C(=O)N(C(C(=O)Nc3nccs3)c3ccccc3)CO4)cc2)CC1 (stereo not drawn) [Compound 003, 2-(6-(4-(1-Methylpiperidin-4-yl)phenyl)-4-oxo-2H-benzo[e][1,3]oxazin-3(4H)-yl)-2-phenyl-N-(thiazol-2-yl)acetamide]
5 | 21 | > 100 | – | – | CN1CCC(c2ccc(-c3ccc4c(c3)OCN(C(C(=O)Nc3nccs3)c3ccccc3)C4=O)cc2)CC1 (stereo not drawn) [Compound 004, 2-(7-(4-(1-Methylpiperidin-4-yl)phenyl)-4-oxo-2H-benzo[e][1,3]oxazin-3(4H)-yl)-2-phenyl-N-(thiazol-2-yl)acetamide]
6 | 4 | 23 | – | – | CN1CCN(c2ccc(-c3ccc4c(c3)C(=O)N(C(C(=O)Nc3nccs3)c3cccc(F)c3)CO4)cc2)CC1 (stereo not drawn) [Compound 002, 2-(3-Fluorophenyl)-2-(6-(4-(4-methylpiperazin-1-yl)phenyl)-4-oxo-2H-benzo[e][1,3]oxazin-3 (4H)-yl)-N-(thiazol-2-yl)acetamide]
7 | 0.4 | 2.8 | 510 | 1480 | CN1CCC(c2ccc(-c3ccc4c(c3)C(=O)N(C(C(=O)Nc3nccs3)c3cccc(F)c3)CO4)cc2)CC1 (stereo not drawn) [Compound 001, 2-(3-Fluorophenyl)-2-(6-(4-(1-methylpiperidin-4-yl)phenyl)-4-oxo-2H-benzo[e][1,3]oxazin-3 (4H)-yl)-N-(thiazol-2-yl)acetamide]

Reference: patent US20250388573A1, “FUSED BICYCLIC EGFR INHIBITORS AND METHODS OF USE THEREOF” (Dana-Farber Cancer Institute, Inc., priority 2022, published 2025)
